# According to patent publication US11452731B2, “Method of treating and preventing loss of cognition” (ENDORECHERCHE, INC., priority 2009, dated 2022):
# Read-outs that look alike come from different tables or passages of the source.
# What was measured:
# [1] = system: ZR-75-1 human breast cancer xenografts; assay: Growth and response of human ZR-75-1 breast tumor xenografts in estrone-supplemented OVX nude mice, DHEA and/or EM-800 for 9.5 months (Example 1); assay type: in vivo; settings: for Inhibition of estrone-stimulated ZR-75-1 tumor size / Category of response: Complete (%) / Category of response: Complete (Number) / Category of response: Partial (%) / Category of response: Partial (Number) / Category of response: Progression (%) / Category of response: Progression (Number) / Category of response: Stable (%) / Category of response: Stable (Number) / Average tumor weight at end of experiment: 9.5 months; for Category of response: Complete (%) / Category of response: Complete (Number) / Category of response: Partial (%) / Category of response: Partial (Number) / Category of response: Progression (%) / Category of response: Progression (Number) / Category of response: Stable (%) / Category of response: Stable (Number) / Average tumor weight at end of experiment: E1-supplemented
# [2] = cited from earlier work
# [3] = system: MCF-7 human breast cancer cells; assay: Proliferation (DNA content) of human breast cancer MCF-7 cells (Example 7); assay type: cell-based; settings: for IC50: Homo sapiens, read-out: Inhibition of 1 nM E2 stimulation of DNA by tested compounds IC50
# Description: MCF-7 human breast cancer cells were obtained from the American Type Culture Collection #HTB 22 at passage 147 and routinely grown in phenol red-free Dulbecco's Modified Eagle's-Ham's F12 medium, the supplements mentioned above and 5% FBS. The MCF-7 human breast adenocarcinoma cell line was derived from the pleural effusion of a patient. MCF-7 cells were used between passages 148 and 165 and subcultured weekly
# Thereafter, medium was replaced with fresh medium containing the indicated concentrations of compounds diluted from 1000×stock solutions in 99% redistilled ethanol in the presence or absence of E2. Control cells received only the ethanolic vehicle (0.1% EtOH, v/v). Cells were incubated for the specified time intervals with medium changes at 2- or 3-day intervals. Cell number was determined by measurement of DNA content.
# All results are expressed as means±SEM.
# [4] = system: ZR-75-1 human breast cancer xenografts; assay: Growth and response of human ZR-75-1 breast tumors in OVX nude mice, 7 antiestrogens for 161 days with or without estrone (Example 8); assay type: in vivo
# Summary of the method: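 ZR-75-1 xenografts were grown in ovariectomized nude mice, with estrone implants removed in the OVX control and antiestrogen-alone groups. Antiestrogens were given as suspensions for 161 days. Tumor area came from two perpendicular diameters, and response was assessed at study end using mice surviving at least 84 days.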
# [5] = DHEA 0.3 mg, EM-800 15 μg, or EM-800 15 μg + DHEA 0.3 mg
# [6] = DHEA 1.0 mg, EM-800 50 μg, or EM-800 15 μg + DHEA 1.0 mg
# [7] = DHEA 3.0 mg, EM-800 100 μg, or EM-800 15 μg + DHEA 3.0 mg
# [8] = estrone-supplemented, 50 μg daily, 161 days
structure (smiles),measurement,setting,value
"C[C@]12CC[C@H](O)CC1=CC[C@@H]1[C@@H]2CC[C@]2(C)C(=O)CC[C@@H]12 [DHEA, dehydroepiandrosterone]",Inhibition of estrone-stimulated ZR-75-1 tumor size,[1]; daily DHEA 0.3 mg or EM-800 15 μg,50.4%
same,Inhibition of estrone-stimulated ZR-75-1 tumor size,[1]; daily DHEA 1.0 mg or EM-800 50 μg,76.8%
same,Inhibition of estrone-stimulated ZR-75-1 tumor size,[1]; daily DHEA 3.0 mg or EM-800 100 μg,80.0%
same,Inhibition of terminal tumor weight,[1]; DHEA 0.3 mg,67%
same,Inhibition of terminal tumor weight,[1]; DHEA 1.0 mg,82%
same,Inhibition of terminal tumor weight,[1]; DHEA 3.0 mg,85%
same,Category of response: Complete (%),[1]; [5],28.6%
same,Category of response: Complete (Number),[1]; [5],4
same,Category of response: Partial (%),[1]; [5],0 (0) %
same,Category of response: Partial (Number),[1]; [5],0 (0)
same,Category of response: Progression (%),[1]; [5],50.0%
same,Category of response: Progression (Number),[1]; [5],7
same,Category of response: Stable (%),[1]; [5],21.4%
same,Category of response: Stable (Number),[1]; [5],3
same,Category of response: Complete (%),[1]; [6],26.7%
same,Category of response: Complete (Number),[1]; [6],4
same,Category of response: Partial (%),[1]; [6],0 (0) %
same,Category of response: Partial (Number),[1]; [6],0 (0)
same,Category of response: Progression (%),[1]; [6],53.3%
same,Category of response: Progression (Number),[1]; [6],8
same,Category of response: Stable (%),[1]; [6],20.0%
same,Category of response: Stable (Number),[1]; [6],3
same,Category of response: Complete (%),[1]; [7],20.0%
same,Category of response: Complete (Number),[1]; [7],3
same,Category of response: Partial (%),[1]; [7],0 (0) %
same,Category of response: Partial (Number),[1]; [7],0 (0)
same,Category of response: Progression (%),[1]; [7],66.7%
same,Category of response: Progression (Number),[1]; [7],10
same,Category of response: Stable (%),[1]; [7],13.3%
same,Category of response: Stable (Number),[1]; [7],2
same,Average tumor weight at end of experiment,"[1]; daily DHEA 0.3 mg, EM-800 15 μg, or EM-800 15 μg + DHEA 0.3 mg",0.37 ± 0.12 g
same,Average tumor weight at end of experiment,"[1]; daily DHEA 1.0 mg, EM-800 50 μg, or EM-800 15 μg + DHEA 1.0 mg",0.20 ± 0.06 g
same,Average tumor weight at end of experiment,"[1]; daily DHEA 3.0 mg, EM-800 100 μg, or EM-800 15 μg + DHEA 3.0 mg",0.17 ± 0.06 g
same,decrease of abdominal subcutaneous fat,[2]; both women and men,6%
same,decrease of responsiveness of serum insulin to the glucose tolerance test,[2]; in vivo,13%
same,improvement in the insulin sensitivity index,[2]; in vivo,34%
same,decrease of abdominal visceral fat,[2]; men,7.4%
same,decrease of abdominal visceral fat,[2]; women,10.2%
"CC1=C(c2ccc(O)cc2)[C@H](c2ccc(OCCN3CCCCC3)cc2)Oc2cc(O)ccc21.Cl [EM-652.HCl, (S)-(+)-7-hydroxy-3-(4′-hydroxyphenyl)-4-methyl-2-(4″-(2′″-piperidinoethoxy)phenyl)-2H-1-benzopyran hydrochloride]",IC50,"[3]; MCF7, MCF-7, Experiment 1",0.796 nM
same,IC50,"[3]; MCF7, MCF-7, Experiment 2",0.205 nM
same,Maximal stimulation of DNA by tested compounds % of 1 nM E2 stimulation,"[3]; MCF-7, Experiment 1",N.S.
same,Stimulation of DNA by tested compounds % of 1 nM E2 stimulation,"[3]; MCF-7, Experiment 2",N.S.
same,increase of average tumor size over baseline (agonistic effect),"[4]; absence of estrone, 200 μg daily, 161 days",did not significantly change
same,tumor size lower than the initial value at start of treatment,"[4]; estrone-stimulated, 50 μg oral daily, 23 weeks",26%
same,"complete response, % of tumors",[4]; [8],17%
same,"partial response, % of tumors",[4]; [8],17%
same,"progressing tumors, % of tumors",[4]; [8],7%
same,"stable response, % of tumors",[4]; [8],60%
